Structures are written as SMILES. Bounds are passed on as bounds.

For orientation: IC50 means the point on the concentration scale where inhibition reaches its midpoint.

One experiment deals with SARS-CoV-2 3CL-protease (Severe acute respiratory syndrome coronavirus 2 (2019-nCoV) (SARS-CoV-2), UniProt P0DTD1). As to the kind of experiment: SARS-CoV-2 3C-like (3CL) protease fluorescence assay (FRET). Type of experiment: biochemical. Conditions: recombinant SARS-CoV-2 3CL-protease 10 nM, 30 min preincubation at RT, TAMRA-SITSAVLQSGFRKMK-Dabcyl-OH substrate, run in duplicate. As to the method: SARS-CoV-2 3C-like (3CL) protease fluorescence assay (FRET): Recombinant SARS-CoV-2 3CL-protease was expressed and purified. TAMRA-[…]-Dabcyl-OH peptide 3CLpro substrate was synthesized. Black, low volume, round-bottom, 384 well microplates were used. In a typical assay, 0.85 μL of test compound was dissolved in DMSO then incubated with SARS-CoV-2 3CL-protease (10 nM) in 10 μL assay buffer (50 mM HEPES [pH 7.5], 1 mM DTT, 0.01% BSA, 0.01% Triton-X 100) for 30 min at RT. Next, 10 μL of 3CL-protease substrate (40 μM) in assay buffer was added and the assays were monitored continuously for 1 h in an Envision multimode plate reader operating in fluorescence kinetics mode with excitation at 540 nm and emission at 580 nm at RT. No compound (DMSO only) and no enzyme controls were routinely included in each plate. All experiments were run in duplicate. Data Analysis: SARS-CoV-2 3CL-protease enzyme activity was measured as initial velocity of the linear phase (RFU/s) and normalized to controlled samples DMSO (100% activity) and no enzyme (0% activity) to determine percent residual activity at various concentrations of test compounds (0-10 μM). Data were fitted to normalized activity (variable slope) versus concentration fit in GraphPad Prism 7 to determine IC50.
Turning to `CC(C)C[C@@H](C(=O)N1C[C@]2(C[C@H]1C#N)C(=O)Nc1ccccc12)N1Cc2cc(Br)ccc2C1=O` [Compound 9, (3R,5'S)-1′-((S)-2-(5-bromo-1-oxoisoindolin-2-yl)-4-methylpentanoyl) oxospiro[indoline-3,3′-pyrrolidine]-5′-carbonitrile], the 50% inhibitory concentration (IC50) was less than 100 nM.

For the compound `CC(C)C[C@H](C(=O)N1C[C@]2(C[C@H]1C#N)C(=O)Nc1ccccc12)n1cccc(-c2ccc(F)cc2)c1=O` [Compound 25-b], the IC50 is more than 1000 nM.

Staying with this experiment, now noted: recombinant SARS-CoV-2 3CL-protease 10 nM, 30 min preincubation at RT, TAMRA-[…]-Dabcyl-OH substrate, run in duplicate.
Regarding `CC(C)C[C@@H](C(=O)N1C[C@]2(C[C@H]1C#N)C(=O)Nc1ccccc12)N1CCc2cccc(F)c2C1=O` [Compound 1, (3R,5'S)-1′-((S)-2-(8-fluoro-1-oxo-3,4-dihydroisoquinolin-2(1H)-yl)-4-methylpentanoyl)-2-oxospiro[indoline-3,3′-pyrrolidine]-5′-carbonitrile], the half-maximal inhibitory concentration (IC50) fell in the range of 100 to 1000 nM.

`CC(C)C[C@@H](C(=O)N1C[C@]2(C[C@H]1C#N)C(=O)Nc1ccccc12)N1CCc2ccc(F)cc2C1=O` [Compound 2]: the IC50 is less than 100 nM.

Consider `CC(C)C[C@@H](C(=O)N1C[C@]2(C[C@H]1C#N)C(=O)Nc1ccccc12)N1CCc2c(F)cccc2C1=O` [Compound 3], for which the IC50 is less than 100 nM.

`CC(C)C[C@@H](C(=O)N1C[C@]2(C[C@H]1C#N)C(=O)Nc1ccccc12)N1CCc2cc(F)ccc2C1=O` [Compound 4]: the half-maximal inhibitory concentration (IC50) is less than 100 nM.

In the case of `CC(C)(C)C[C@@H](C(=O)N1C[C@]2(C[C@H]1C#N)C(=O)Nc1ccccc12)N1CCc2c(F)cccc2C1=O` [Compound 5], the IC50 is less than 100 nM.

Take `CC(C)(C)C[C@@H](C(=O)N1C[C@]2(C[C@H]1C#N)C(=O)Nc1ccccc12)N1CCc2cc(F)ccc2C1=O` [Compound 6]: the IC50 is less than 100 nM.

For `CC(C)(C)C[C@@H](C(=O)N1C[C@]2(C[C@H]1C#N)C(=O)Nc1ccccc12)N1CCc2ccc(F)cc2C1=O` [Compound 7], the half-maximal inhibitory concentration (IC50) was less than 100 nM.

For the compound `CC(C)(C)C[C@@H](C(=O)N1C[C@]2(C[C@H]1C#N)C(=O)Nc1ccccc12)N1CCc2cccc(F)c2C1=O` [Compound 8], the IC50 is 100 to 1000 nM.

As for `CC(C)C[C@@H](C(=O)N1C[C@]2(C[C@H]1C#N)C(=O)Nc1ccccc12)N1Cc2c(cccc2C(F)(F)F)C1=O` [Compound 10], the 50% inhibitory concentration (IC50) is less than 100 nM.

For `CC(C)(C)C[C@@H](C(=O)N1C[C@]2(C[C@H]1C#N)C(=O)Nc1ccccc12)N1Cc2c(cccc2C(F)(F)F)C1=O` [Compound 11], the half-inhibitory concentration (IC50) was less than 100 nM.

Regarding `CC(C)(C)C[C@@H](C(=O)N1C[C@]2(C[C@H]1C#N)C(=O)Nc1ccccc12)N1Cc2cc(Cl)ccc2C1=O` [Compound 12], the half-inhibitory concentration (IC50) was less than 100 nM.

As to `CC(C)(F)C[C@@H](C(=O)N1C[C@]2(C[C@H]1C#N)C(=O)Nc1ccccc12)N1Cc2cc(Cl)ccc2C1=O` [Compound 13], the IC50 was less than 100 nM.

For the compound `CC(C)(F)C[C@@H](C(=O)N1C[C@]2(C[C@H]1C#N)C(=O)Nc1ccccc12)N1Cc2c(Cl)cccc2C1=O` [Compound 14], the IC50 was less than 100 nM.

As for `CC(C)(F)C[C@@H](C(=O)N1C[C@]2(C[C@H]1C#N)C(=O)Nc1ccccc12)N1Cc2ccc(Cl)cc2C1=O` [Compound 15], the concentration for half-maximal inhibition (IC50) is less than 100 nM.

As for `CC(C)(F)C[C@@H](C(=O)N1C[C@]2(C[C@H]1C#N)C(=O)Nc1ccccc12)N1Cc2cccc(Cl)c2C1=O` [Compound 16], the IC50 fell in the range of 100 to 1000 nM.

Take `COc1ccc2c(c1)CN([C@@H](CC(C)(C)C)C(=O)N1C[C@]3(C[C@H]1C#N)C(=O)Nc1ccccc13)C2=O` [Compound 17]: the 50% inhibitory concentration (IC50) is less than 100 nM.

In the case of `COc1ccc2c(c1)C(=O)N([C@@H](CC(C)(C)C)C(=O)N1C[C@]3(C[C@H]1C#N)C(=O)Nc1ccccc13)C2` [Compound 18], the half-inhibitory concentration (IC50) was less than 100 nM.

Take `COc1cccc2c1CN([C@@H](CC(C)(C)C)C(=O)N1C[C@]3(C[C@H]1C#N)C(=O)Nc1ccccc13)C2=O` [Compound 19]: the IC50 is less than 100 nM.

Turning to `CC(C)(C)C[C@@H](C(=O)N1C[C@]2(C[C@H]1C#N)C(=O)Nc1ccccc12)N1Cc2cccnc2C1=O` [Compound 20], the IC50 lay within 100 to 1000 nM.

With `CC(C)(F)C[C@@H](C(=O)N1C[C@]2(C[C@H]1C#N)C(=O)Nc1ccccc12)N1Cc2ncc(Cl)cc2C1=O` [Compound 21], the IC50 was less than 100 nM.

Consider `CC(C)C[C@@H](C(=O)N1C[C@]2(C[C@H]1C#N)C(=O)Nc1ccccc12)N1C(=O)c2ccccc2[C@H]1C` [Compound 22-a, (3R,5'S)-1′-((S)-4-methyl-2-((R)-1-methyl-3-oxoisoindolin-2-yl)pentanoyl)-2-oxospiro[indoline-3,3′-pyrrolidine]-5′-carbonitrile], for which the IC50 is less than 100 nM.

On to `CC(C)C[C@@H](C(=O)N1C[C@]2(C[C@H]1C#N)C(=O)Nc1ccccc12)N1C(=O)c2ccccc2[C@@H]1C` [Compound 22-b, (3R,5'S)-1′-((S)-4-methyl-2-((S)-1-methyl-3-oxoisoindolin-2-yl)pentanoyl)-2-oxospiro[indoline-3,3′-pyrrolidine]-5′-carbonitrile], for which the half-inhibitory concentration (IC50) was less than 100 nM.

As for `C=C1c2ccccc2C(=O)N1[C@@H](CC(C)C)C(=O)N1C[C@]2(C[C@H]1C#N)C(=O)Nc1ccccc12` [Compound 22-c, (3R,5'S)-1′-((S)-4-methyl-2-(1-methylene-3-oxoisoindolin-2-yl)pentanoyl)-2-oxospiro[indoline-3,3′-pyrrolidine]-5′-carbonitrile], the IC50 was less than 100 nM.

As for `CC(C)(C)C[C@@H](C(=O)N1C[C@]2(C[C@H]1C#N)C(=O)Nc1ccccc12)N1C(=O)c2ccc(F)cc2C1(C)C` [Compound 23, (3R,5'S)-1′-((S)-2-(6-fluoro-1,1-dimethyl-3-oxoisoindolin-2-yl)-4,4-dimethylpentanoyl)-2-oxospiro[indoline-3,3′-pyrrolidine]-5′-carbonitrile], the concentration for half-maximal inhibition (IC50) lay within 100 to 1000 nM.

Regarding `CC(C)C[C@@H](C(=O)N1C[C@]2(C[C@H]1C#N)C(=O)Nc1ccccc12)N1C(=O)c2ccc(F)cc2C1(C)C` [Compound 24], the IC50 is more than 1000 nM.

On to `CC(C)C[C@@H](C(=O)N1C[C@]2(C[C@H]1C#N)C(=O)Nc1ccccc12)n1cccc(-c2ccncc2)c1=O` [Compound 26-a], for which the half-maximal inhibitory concentration (IC50) fell in the range of 100 to 1000 nM.

`CC(C)C[C@H](C(=O)N1C[C@]2(C[C@H]1C#N)C(=O)Nc1ccccc12)n1cccc(-c2ccncc2)c1=O` [Compound 26-b]: the 50% inhibitory concentration (IC50) is more than 1000 nM.

The values are drawn from US12145941B2, “Heterocyclic antiviral agents” (ENANTA PHARMACEUTICALS, INC., priority 2021, dated 2024).
